Results: PubChem BioAssay (NCI)
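Test compounds were applied to cells in 96-well plates for 48 hours at 5 doses. Here, GI50 denotes the concentration required for 50% inhibition of growth. At the TGI there is no net growth.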

Legend:
Assay in all cases: inhibition of tumour cell growth, NCI panel, 48 h
HOP-62 NSCLC = test system: HOP-62 NSCLC
OVCAR-8 ovarian = test system: OVCAR-8 ovarian
U251 CNS = test system: U251 CNS
NCI/ADR-RES ovarian = test system: NCI/ADR-RES ovarian
A549 NSCLC = test system: A549 NSCLC
SF-295 CNS = test system: SF-295 CNS
TK-10 renal = test system: TK-10 renal
M14 melanoma = test system: M14 melanoma
T-47D breast = test system: T-47D breast
EKVX NSCLC = test system: EKVX NSCLC
PC-3 prostate = test system: PC-3 prostate
MALME-3M melanoma = test system: MALME-3M melanoma
SK-OV-3 ovarian = test system: SK-OV-3 ovarian
OVCAR-5 ovarian = test system: OVCAR-5 ovarian
786-0 renal = test system: 786-0 renal
OVCAR-4 ovarian = test system: OVCAR-4 ovarian
RXF 393 renal = test system: RXF 393 renal
SW-620 colon = test system: SW-620 colon
LOX IMVI melanoma = test system: LOX IMVI melanoma
NCI-H23 lung = test system: NCI-H23 lung
HL-60(TB) leukemia = test system: HL-60(TB) leukemia
COLO 205 colon = test system: COLO 205 colon
HCT-15 colon = test system: HCT-15 colon
SNB-19 CNS = test system: SNB-19 CNS
UO-31 renal = test system: UO-31 renal
BT-549 breast = test system: BT-549 breast
SF-268 CNS = test system: SF-268 CNS
SK-MEL-28 melanoma = test system: SK-MEL-28 melanoma
HCT-116 colon = test system: HCT-116 colon
MDA-MB-231 breast = test system: MDA-MB-231 breast
KM12 colon = test system: KM12 colon
A498 renal = test system: A498 renal
DU-145 prostate = test system: DU-145 prostate
CAKI-1 renal = test system: CAKI-1 renal
SK-MEL-5 melanoma = test system: SK-MEL-5 melanoma
SN12C renal = test system: SN12C renal
SNB-75 CNS = test system: SNB-75 CNS
CCRF-CEM leukemia = test system: CCRF-CEM leukemia
MDA-MB-435 = test system: MDA-MB-435
UACC-257 melanoma = test system: UACC-257 melanoma
NCI-H226 lung = test system: NCI-H226 lung
UACC-62 melanoma = test system: UACC-62 melanoma
MOLT-4 leukemia = test system: MOLT-4 leukemia
IGROV1 ovarian = test system: IGROV1 ovarian
SF-539 CNS = test system: SF-539 CNS
HS 578T breast = test system: HS 578T breast
ACHN renal = test system: ACHN renal
SK-MEL-2 melanoma = test system: SK-MEL-2 melanoma
NCI-H522 lung = test system: NCI-H522 lung
OVCAR-3 ovarian = test system: OVCAR-3 ovarian
HCC-2998 colon = test system: HCC-2998 colon
HOP-92 NSCLC = test system: HOP-92 NSCLC
MCF7 breast = test system: MCF7 breast
RPMI-8226 leukemia = test system: RPMI-8226 leukemia
K-562 leukemia = test system: K-562 leukemia
HT29 colon = test system: HT29 colon
SR leukemia = test system: SR leukemia
NCI-H460 lung = test system: NCI-H460 lung

C=CCCC(=O)N1CCC(C(=O)OCC)C1=O (stereo not drawn)
TGI (HOP-62 NSCLC): > 100 µM | TGI (OVCAR-8 ovarian): > 100 µM | TGI (U251 CNS): > 100 µM | TGI (NCI/ADR-RES ovarian): > 100 µM | TGI (A549 NSCLC): > 100 µM | TGI (SF-295 CNS): > 100 µM | TGI (TK-10 renal): > 100 µM | TGI (M14 melanoma): > 100 µM | TGI (T-47D breast): > 100 µM | TGI (EKVX NSCLC): > 100 µM | TGI (PC-3 prostate): > 100 µM | TGI (MALME-3M melanoma): > 100 µM | TGI (SK-OV-3 ovarian): > 100 µM | TGI (OVCAR-5 ovarian): > 100 µM | TGI (786-0 renal): > 100 µM | TGI (OVCAR-4 ovarian): > 100 µM | TGI (RXF 393 renal): > 100 µM | TGI (SW-620 colon): > 100 µM | TGI (LOX IMVI melanoma): > 100 µM | TGI (NCI-H23 lung): > 100 µM | TGI (HL-60(TB) leukemia): > 100 µM | TGI (COLO 205 colon): > 100 µM | TGI (HCT-15 colon): > 100 µM | TGI (SNB-19 CNS): > 100 µM | TGI (UO-31 renal): > 100 µM | TGI (BT-549 breast): > 100 µM | TGI (SF-268 CNS): > 100 µM | TGI (SK-MEL-28 melanoma): > 100 µM | TGI (HCT-116 colon): > 100 µM | TGI (MDA-MB-231 breast): > 100 µM | TGI (KM12 colon): > 100 µM | TGI (A498 renal): > 100 µM | TGI (DU-145 prostate): > 100 µM | TGI (CAKI-1 renal): > 100 µM | TGI (SK-MEL-5 melanoma): > 100 µM | TGI (SN12C renal): > 100 µM | TGI (SNB-75 CNS): > 100 µM | TGI (CCRF-CEM leukemia): > 100 µM | TGI (MDA-MB-435): > 100 µM | TGI (UACC-257 melanoma): > 100 µM | TGI (NCI-H226 lung): > 100 µM | TGI (UACC-62 melanoma): > 100 µM | TGI (MOLT-4 leukemia): > 100 µM | TGI (IGROV1 ovarian): > 100 µM | TGI (SF-539 CNS): > 100 µM | TGI (HS 578T breast): > 100 µM | TGI (ACHN renal): > 100 µM | TGI (SK-MEL-2 melanoma): > 100 µM | TGI (NCI-H522 lung): > 100 µM

CCC(/C=C(C)/C=C/C(=O)c1c(O)c(-c2ccc(O)cc2)c[nH]c1=O)CO (stereo not drawn)
GI50 (OVCAR-3 ovarian): 3.8 µM | TGI (OVCAR-3 ovarian): 16.1 µM | GI50 (HOP-62 NSCLC): 14.2 µM | TGI (HOP-62 NSCLC): 37.2 µM | GI50 (OVCAR-8 ovarian): 8.34 µM | TGI (OVCAR-8 ovarian): > 100 µM | GI50 (U251 CNS): 6.91 µM | TGI (U251 CNS): 23.9 µM | GI50 (NCI/ADR-RES ovarian): 21.6 µM | TGI (NCI/ADR-RES ovarian): > 100 µM | GI50 (A549 NSCLC): 20.7 µM | TGI (A549 NSCLC): 93.8 µM | GI50 (SF-295 CNS): 10.1 µM | TGI (SF-295 CNS): 30.9 µM | GI50 (TK-10 renal): 20.4 µM | TGI (TK-10 renal): 80.8 µM | GI50 (M14 melanoma): 12.9 µM | TGI (M14 melanoma): 26.7 µM | GI50 (HCC-2998 colon): 13 µM | TGI (HCC-2998 colon): 25.6 µM | GI50 (T-47D breast): 10.6 µM | TGI (T-47D breast): 54.2 µM | GI50 (EKVX NSCLC): 15.4 µM | TGI (EKVX NSCLC): 68 µM | GI50 (PC-3 prostate): 14.3 µM | TGI (PC-3 prostate): 82.1 µM | GI50 (MALME-3M melanoma): 10.3 µM | TGI (MALME-3M melanoma): 26.4 µM | GI50 (SK-OV-3 ovarian): 23.4 µM | TGI (SK-OV-3 ovarian): 99.5 µM | GI50 (OVCAR-5 ovarian): 13 µM | TGI (OVCAR-5 ovarian): 27.1 µM | GI50 (HOP-92 NSCLC): 8.55 µM | TGI (HOP-92 NSCLC): 82.6 µM | GI50 (786-0 renal): 8.1 µM | TGI (786-0 renal): 20.6 µM | GI50 (OVCAR-4 ovarian): 12 µM | TGI (OVCAR-4 ovarian): > 100 µM | GI50 (RXF 393 renal): 5.82 µM | TGI (RXF 393 renal): 22.2 µM | GI50 (SW-620 colon): 10.7 µM | TGI (SW-620 colon): 26.9 µM | GI50 (LOX IMVI melanoma): 9.87 µM | TGI (LOX IMVI melanoma): 21.5 µM | GI50 (NCI-H23 lung): 9.55 µM | TGI (NCI-H23 lung): 24.1 µM | GI50 (HL-60(TB) leukemia): 2.83 µM | TGI (HL-60(TB) leukemia): 17.4 µM | GI50 (COLO 205 colon): 15.5 µM | TGI (COLO 205 colon): 28.8 µM | GI50 (HCT-15 colon): 8.13 µM | TGI (HCT-15 colon): 22.1 µM | GI50 (SNB-19 CNS): 11.9 µM | TGI (SNB-19 CNS): 27.4 µM | GI50 (UO-31 renal): 6.74 µM | TGI (UO-31 renal): 28.7 µM | GI50 (SF-268 CNS): 6.8 µM | TGI (SF-268 CNS): 21.1 µM | GI50 (MCF7 breast): 4.35 µM | TGI (MCF7 breast): 18.9 µM | GI50 (SK-MEL-28 melanoma): 11.8 µM | TGI (SK-MEL-28 melanoma): 24.6 µM | GI50 (HCT-116 colon): 6.61 µM | TGI (HCT-116 colon): 19.2 µM | GI50 (MDA-MB-231 breast): 9.17 µM | TGI (MDA-MB-231 breast): 29.5 µM | GI50 (KM12 colon): 4.2 µM | TGI (KM12 colon): 16.1 µM | GI50 (A498 renal): 3.69 µM | TGI (A498 renal): 18.8 µM | GI50 (DU-145 prostate): 2.83 µM | TGI (DU-145 prostate): 12.5 µM | GI50 (CAKI-1 renal): 10.5 µM | TGI (CAKI-1 renal): 47.5 µM | GI50 (SK-MEL-5 melanoma): 11.2 µM | TGI (SK-MEL-5 melanoma): 24.3 µM | GI50 (RPMI-8226 leukemia): 6.89 µM | TGI (RPMI-8226 leukemia): 32.3 µM | GI50 (K-562 leukemia): 4.11 µM | TGI (K-562 leukemia): 37.4 µM | GI50 (SN12C renal): 11.8 µM | TGI (SN12C renal): 41.9 µM | GI50 (SNB-75 CNS): 6.11 µM | TGI (SNB-75 CNS): 24.5 µM | GI50 (CCRF-CEM leukemia): 3.53 µM | TGI (CCRF-CEM leukemia): 26.7 µM | GI50 (HT29 colon): 13.9 µM | TGI (HT29 colon): 29.2 µM | GI50 (SR leukemia): 2.43 µM | TGI (SR leukemia): 13.2 µM | GI50 (MDA-MB-435): 4.34 µM | TGI (MDA-MB-435): 31.9 µM | GI50 (UACC-257 melanoma): 11.3 µM | TGI (UACC-257 melanoma): 25 µM | GI50 (NCI-H226 lung): 18 µM | TGI (NCI-H226 lung): > 100 µM | GI50 (NCI-H460 lung): 6.15 µM | TGI (NCI-H460 lung): 21.9 µM | GI50 (UACC-62 melanoma): 10.2 µM | TGI (UACC-62 melanoma): 23.3 µM | GI50 (MOLT-4 leukemia): 5.84 µM | TGI (MOLT-4 leukemia): 44.2 µM | GI50 (IGROV1 ovarian): 6.11 µM | TGI (IGROV1 ovarian): 42.1 µM | GI50 (SF-539 CNS): 3.22 µM | TGI (SF-539 CNS): 26 µM | GI50 (HS 578T breast): 2.78 µM | TGI (HS 578T breast): 36.1 µM | GI50 (ACHN renal): 11.9 µM | TGI (ACHN renal): 37.9 µM | GI50 (SK-MEL-2 melanoma): 16 µM | TGI (SK-MEL-2 melanoma): 52.2 µM | GI50 (NCI-H522 lung): 5.56 µM | TGI (NCI-H522 lung): 21 µM
